Reference: PubChem BioAssay AID328 (DTP/NCI, 2004)
Several values for one entry are separate records, joined by “and”; a condition that tells them apart may be missing. Equal entries are not always repeated. Inconclusive results and toxic doses are left out. Rule for the calls: active = survival T/C of 150% or more; inactive = T/C below 125% in these data.

Tested on: BDF1 mice, P388 leukemia ip, median survival T/C
Assay: NCI In Vivo Anticancer Drug Screen. Data for tumor model P388 Leukemia (intraperitoneal) in B6D2F1 (BDF1) mice
Settings: endpoint: median survival time, higher = longer survival
Method in brief: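 Vehicle-dosed animals serve as the reference; survival of compound-dosed, tumour-implanted mice is divided by it.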

[1] = dose: 25.0 mg/kg/injection, schedule: Q01DX009 (ip), vehicle: saline with Tween-80
[2] = dose: 50.0 mg/kg/injection, schedule: Q01DX009 (ip), vehicle: saline with Tween-80
[3] = dose: 100.0 mg/kg/injection, schedule: Q01DX009 (ip), vehicle: saline with Tween-80
[4] = dose: 100.0 mg/kg/injection, schedule: Q01DX009 (ip), vehicle: saline
[5] = dose: 100.0 mg/kg/injection, schedule: Q04DX003 (ip), vehicle: saline with Tween-80
[6] = dose: 100.0 mg/kg/injection, schedule: Q04DX003 (ip), vehicle: saline
[7] = dose: 200.0 mg/kg/injection, schedule: Q01DX009 (ip), vehicle: saline
[8] = dose: 200.0 mg/kg/injection, schedule: Q04DX003 (ip), vehicle: saline with Tween-80
[9] = dose: 200.0 mg/kg/injection, schedule: Q04DX003 (ip), vehicle: saline
[10] = dose: 400.0 mg/kg/injection, schedule: Q01DX009 (ip), vehicle: saline
[11] = dose: 400.0 mg/kg/injection, schedule: Q04DX003 (ip), vehicle: saline with Tween-80
[12] = dose: 400.0 mg/kg/injection, schedule: Q04DX003 (ip), vehicle: saline
[13] = dose: 200.0 mg/kg/injection, schedule: Q01DX009 (ip), vehicle: saline with Tween-80
[14] = dose: 50.0 mg/kg/injection, schedule: Q01DX009 (ip), vehicle: saline
[15] = dose: 400.0 mg/kg/injection, schedule: Q01DX009 (ip), vehicle: saline with Tween-80
[16] = dose: 400.0 mg/kg/injection, schedule: Q04DX003 (ip), vehicle: Klucel (hydroxypropylcellulose) (HPC)
[17] = dose: 25.0 mg/kg/injection, schedule: Q01DX009 (ip), vehicle: Klucel (hydroxypropylcellulose) (HPC)
[18] = dose: 50.0 mg/kg/injection, schedule: Q01DX009 (ip), vehicle: Klucel (hydroxypropylcellulose) (HPC)
[19] = dose: 25.0 mg/kg/injection, schedule: Q01DX009 (ip), vehicle: saline
[20] = dose: 100.0 mg/kg/injection, schedule: Q04DX003 (ip), vehicle: Klucel (hydroxypropylcellulose) (HPC)
[21] = dose: 200.0 mg/kg/injection, schedule: Q04DX003 (ip), vehicle: Klucel (hydroxypropylcellulose) (HPC)
[22] = dose: 25.0 mg/kg/injection, schedule: Q04DX003 (ip), vehicle: saline
[23] = dose: 50.0 mg/kg/injection, schedule: Q04DX003 (ip), vehicle: saline

Measured: T/C

OCCOCC(F)(F)F
inactive: [1] 98 % of control | [2] 105 % of control | [3] 88 % of control and 108 % of control | [4] 122 % of control | [5] 100 % of control | [6] 100 % of control | [7] 122 % of control | [8] 123 % of control | [9] 100 % of control | [10] 111 % of control | [11] 88 % of control | [12] 90 % of control

COC(=O)C1=C(C(=O)OC)C2C=CC1C1CC(OC(C)=O)C21 (stereo not drawn)
inactive: [2] 113 % of control | [3] 113 % of control | [13] 101 % of control

CCCCNC1=CC(=O)CC(C)(C)C1
inactive: [14] 105 % of control | [4] 111 % of control | [7] 107 % of control

CCOC(=O)c1cnc2ccc(OC)cc2c1Cl
inactive: [2] 95 % of control | dose: 50.0 mg/kg/injection, schedule: Q04DX003 (ip), vehicle: saline with Tween-80 91 % of control | [3] 111 % of control | [5] 103 % of control | [13] 99 % of control | [8] 103 % of control | [15] 96 % of control | [11] 95 % of control

COc1cc([C@@H]2c3cc4c(c(OC)c3C[C@H]3COC(=O)[C@@H]32)OCO4)cc(OC)c1OC
active: dose: 12.5 mg/kg/injection, schedule: Q01DX010 (ip), vehicle: saline 172 % of control
inactive: dose: 12.5 mg/kg/injection, schedule: Q01DX001 (ip), vehicle: other 105 % of control | dose: 25.0 mg/kg/injection, schedule: Q01DX001 (ip), vehicle: saline 100 % of control | dose: 25.0 mg/kg/injection, schedule: Q01DX010 (ip), vehicle: saline 104 % of control | dose: 50.0 mg/kg/injection, schedule: Q01DX001 (ip), vehicle: saline 113 % of control | dose: 50.0 mg/kg/injection, schedule: Q01DX010 (ip), vehicle: other 90 % of control | dose: 100.0 mg/kg/injection, schedule: Q01DX001 (ip), vehicle: saline 113 % of control | dose: 200.0 mg/kg/injection, schedule: Q01DX001 (ip), vehicle: saline 118 % of control

NC(N)=NCCNC(=O)C1CCC(N)C1 (stereo not drawn)
inactive: dose: 0.08 mg/kg/injection, schedule: Q01DX009 (ip), vehicle: saline 97 % of control | dose: 0.16 mg/kg/injection, schedule: Q01DX009 (ip), vehicle: saline 97 % of control | dose: 0.32 mg/kg/injection, schedule: Q01DX009 (ip), vehicle: saline 99 % of control | dose: 0.63 mg/kg/injection, schedule: Q01DX009 (ip), vehicle: saline 100 % of control

CC(C)Cn1cnc2c(Sc3c([N+](=O)[O-])ncn3C)nc(N)nc21
inactive: dose: 67.0 mg/kg/injection, schedule: Q01DX009 (ip), vehicle: Klucel (hydroxypropylcellulose) (HPC) 115 % of control | dose: 200.0 mg/kg/injection, schedule: Q01DX009 (ip), vehicle: Klucel (hydroxypropylcellulose) (HPC) 91 % of control and 104 % of control | dose: 400.0 mg/kg/injection, schedule: Q01DX009 (ip), vehicle: Klucel (hydroxypropylcellulose) (HPC) 86 % of control | [16] 118 % of control

O=C(/C(=C\c1ccccc1)CN1CCOCC1)c1ccc(Br)cc1
inactive: [17] 104 % of control | dose: 37.5 mg/kg/injection, schedule: Q04DX003 (ip), vehicle: Klucel (hydroxypropylcellulose) (HPC) 108 % of control | [18] 108 % of control | dose: 75.0 mg/kg/injection, schedule: Q04DX003 (ip), vehicle: Klucel (hydroxypropylcellulose) (HPC) 104 % of control | dose: 150.0 mg/kg/injection, schedule: Q04DX003 (ip), vehicle: Klucel (hydroxypropylcellulose) (HPC) 108 % of control

C/C(=C\Cl)CO
inactive: dose: 56.25 mg/kg/injection, schedule: Q01DX001 (ip), vehicle: saline 95 % of control | dose: 56.25 mg/kg/injection, schedule: Q04DX003 (ip), vehicle: saline 100 % of control | dose: 112.5 mg/kg/injection, schedule: Q01DX001 (ip), vehicle: saline 100 % of control | dose: 112.5 mg/kg/injection, schedule: Q04DX003 (ip), vehicle: saline 95 % of control | dose: 150.0 mg/kg/injection, schedule: Q01DX009 (ip), vehicle: alcohol 95 % of control | dose: 225.0 mg/kg/injection, schedule: Q01DX001 (ip), vehicle: saline 90 % of control | dose: 225.0 mg/kg/injection, schedule: Q01DX009 (ip), vehicle: alcohol 100 % of control | dose: 225.0 mg/kg/injection, schedule: Q04DX003 (ip), vehicle: saline 90 % of control

CC(C)(C)c1cc([N+](=O)[O-])cc([N+](=O)[O-])c1O
inactive: dose: 0.78 mg/kg/injection, schedule: Q01DX009 (ip), vehicle: saline with Tween-80 105 % of control | dose: 1.56 mg/kg/injection, schedule: Q01DX009 (ip), vehicle: saline with Tween-80 101 % of control | dose: 3.13 mg/kg/injection, schedule: Q01DX009 (ip), vehicle: saline with Tween-80 101 % of control | dose: 6.25 mg/kg/injection, schedule: Q01DX009 (ip), vehicle: saline with Tween-80 99 % of control

COC1=NCN=C2SC=C(N)N=C12
inactive: dose: 12.5 mg/kg/injection, schedule: Q01DX009 (ip), vehicle: saline 100 % of control | [19] 98 % of control | [14] 105 % of control

Nc1ccccc1/C=C(\C(=O)O)c1cccc(Cl)c1
inactive: [20] 95 % of control | [21] 104 % of control | [16] 100 % of control

Cc1cccc(CCl)c1
inactive: dose: 100.0 mg/kg/injection, schedule: Q04DX003 (ip), vehicle: saline sonified 104 % of control | dose: 200.0 mg/kg/injection, schedule: Q04DX003 (ip), vehicle: saline sonified 109 % of control | dose: 400.0 mg/kg/injection, schedule: Q04DX003 (ip), vehicle: saline sonified 100 % of control

C/C=C/C1CC(OC)=CC(=O)O1 (stereo not drawn)
inactive: [5] 106 % of control | [8] 92 % of control | [11] 97 % of control

O=C(O)c1cc(-c2ccc(Cl)cc2)nc2c(Cl)cccc12
inactive: [18] 100 % of control | dose: 50.0 mg/kg/injection, schedule: Q04DX003 (ip), vehicle: Klucel (hydroxypropylcellulose) (HPC) 91 % of control | dose: 100.0 mg/kg/injection, schedule: Q01DX009 (ip), vehicle: Klucel (hydroxypropylcellulose) (HPC) 100 % of control | [20] 86 % of control | [21] 86 % of control

COc1ccc(S(=O)(=O)c2ccccc2)c2nonc12
inactive: [1] 90 % of control | [2] 86 % of control | [3] 92 % of control

CCOC(=O)/C=C(\C)OCC
inactive: [19] 104 % of control | [22] 92 % of control and 111 % of control | [14] 101 % of control | [23] 94 % of control and 114 % of control | [4] 90 % of control | [6] 100 % of control | [7] 109 % of control | [9] 98 % of control and 106 % of control | [10] 95 % of control | [12] 97 % of control and 104 % of control

CCCCNC(=O)c1ccccc1Sc1ccccc1C(=O)NCCCC
inactive: dose: 100.0 mg/kg/injection, schedule: Q04DX002 (ip), vehicle: saline with Tween-80 107 % of control | dose: 200.0 mg/kg/injection, schedule: Q04DX002 (ip), vehicle: saline with Tween-80 109 % of control | dose: 400.0 mg/kg/injection, schedule: Q04DX002 (ip), vehicle: saline with Tween-80 104 % of control

CC(=O)Nc1cc(NC(C)=O)cc([N+](=O)[O-])c1
inactive: [22] 110 % of control | [23] 106 % of control | [6] 100 % of control | [9] 107 % of control | [12] 103 % of control

C[C@@H]1C[C@H]2CC[C@H](O2)[C@H](C)C(=O)O[C@@H](C)C[C@@H]2CC[C@@H](O2)[C@@H](C)C(=O)O[C@H](C)C[C@H]2CC[C@H](O2)[C@H](C)C(=O)O[C@@H](C)C[C@@H]2CC[C@@H](O2)[C@@H](C)C(=O)O1
inactive: [2] 90 % of control | [3] 109 % of control | [5] 104 % of control | [8] 86 % of control

COc1cc(CC#N)ccc1C
inactive: [17] 92 % of control

O=c1cc(Cl)c2ccccc2[nH]1
inactive: [3] 100 % of control | [5] 109 % of control | [13] 91 % of control | [8] 100 % of control | [15] 100 % of control | [11] 100 % of control
